Test results reported in US20080234130A1, “Compositions providing tolerance to multiple herbicides and methods of use thereof” (priority 2005, published 2008).

Key:
[1] = tested on: Fairview (Tulbagh) ryegrass resistant to glyphosate, paraquat, and ACCase-inhibitors; test: Control of resistant ryegrass by glyphosate, metsulfuron-methyl and two additives (Table 25); assay type: in vivo; conditions: Trial 1: glyphosate (ROUNDUP) 0.5 L/ha
Procedure: This example was conducted on one of the most resistant ryegrass types in the world, ryegrass resistant to non-selective herbicides, e.g., Fairview (Tulbagh), which is resistant to glyphosate, paraquat, and ACCase-inhibitors. In this example, the addition of metsulfuron-methyl (BRUSH-OFF®) at 5 and 10 g ha^−1, with 1% ammonium sulfate-based adjuvant (ADD-UP®) to 0.5 L Roundup improved control by 44% (e.g., 50% to 94%).
• Biotype: Fairview (Tulbagh) resistant to glyphosate, paraquat, and ACCase-inhibitors. • Growth Stage: 10-15 leaf stage • Conditions: Cool and sunny • 15 Volume rate: 200 L ha^−1 • glyphosate (ROUNDUP): 360 g ai L^−1

[2] = tested on: non-glyphosate resistant Conyza (Welgevallen-paraquat resistant); test: Control of hairy fleabane by glyphosate, metsulfuron-methyl and two additives (Table 24); assay type: in vivo, Conyza bonariensis
Procedure: This example included the same treatments as used in Example 11, except the treatments were carried out on a glyphosate sensitive biotype of Kleinskraalhans (Conyza bonariensis).
• Biotype: Non-glyphosate resistant Conyza (Welgevallen-paraquat resistant) • Growth Stage: 10-15 leaf stage • Conditions: Cool and sunny • Volume rate: 200 L ha^−1 • glyphosate (ROUNDUP): 360 g a.i. L^−1

[3] = tested on: parent elite stiff stalk inbred corn; test: Postemergence effect of ALS herbicides, glyphosate and glufosinate (fresh weight, visual injury); conditions: 200 g/ha (glyphosate 3472 g ae/ha, glufosinate ammonium 1870 g/ha), mean of four replications
[4] = tested on: GAT-HRA transgenic cotton plants; test: Greenhouse over the top herbicide spray of cotton; assay type: in vivo, Gossypium hirsutum; conditions: glyphosate over the top at 4-6 leaf stage, 1.5 lb acid equivalent per acre; 14 days after application
Excerpt: (§1) Transformed cotton plants were rooted and then transferred to soil for further growth. Plants were then subjected to herbicide spray treatments in a greenhouse. […] Untransformed Coker 312 control plants were dead 2 weeks after glyphosate application. […] Plants transformed with both GAT and HRA were further subjected to an “over the top” application of the sulfonylurea herbicide rimsulfuron at a rate of 16 g active ingredient/hectare. […] In further experiments 32 g ai/ha rimsulfuron were applied to the cotton.

[5] = tested on: untransformed Coker 312 cotton; test: Greenhouse over the top herbicide spray of cotton; assay type: in vivo, Gossypium hirsutum; conditions: glyphosate over the top at 4-6 leaf stage, 1.5 lb acid equivalent per acre; 2 weeks after application
Excerpt: as §1

[6] = tested on: non-transformed GS3 embryos; test: Glyphosate kill curve on culture media; assay type: cell-based, maize; conditions: about 40 days culture
Procedure: (§2) A glyphosate kill curve was established by testing non-transformed embryos response on media with different levels of glyphosate. GS3 embryos were isolated from an immature ear and placed onto media containing glyphosate at 0.0, 0.5, 1.0, and 2.0 mM. After about 40 days culture, the response of the embryos were observed and recorded. Similarly, infected GS3 embryos with the GAT construct were placed onto media containing glyphosate at 0.0, 0.5, 1.0, and 2.0 mM. After about 40 days culture, the response of the infected embryos were observed and recorded (FIG. 7).

[7] = tested on: heterozygous GAT-HRA corn; test: Postemergence effect of ALS herbicides, glyphosate and glufosinate (fresh weight, visual injury); conditions: 200 g/ha (glyphosate 3472 g ae/ha, glufosinate ammonium 1870 g/ha), mean of four replications
[8] = tested on: infected GS3 embryos with the GAT construct; test: Glyphosate selection of embryos infected with the GAT construct; assay type: cell-based, maize; conditions: media with 1.0 mM or 2.0 mM glyphosate, about 40 days culture
Procedure: as §2

[9] = tested on: GAT-HRA soybeans; test: Postemergence greenhouse spray of soybeans, visual injury (Table 11); conditions: 8960 g/ha
Procedure: (§3) Young regenerated transgenic plants were sprayed with 1× glyphosate (1× rate of glyphosate is 1120 g/ha of glyphosate isopropylamine) to cull segregants. Four replications were performed for each treatment. Plants were then treated with various herbicides, including glyphosate and ALS-inhibitor herbicides.
(§4) Six soybean seeds from each variety to be assayed were planted 1 cm deep in 5.5 (13.97 cm) inch square plastic container of a synthetic growth medium. […] When possible, containers were thinned to two uniform plants. Non-transgenic lines were thinned to two uniform plants per container.
(§5) Results are expressed below in Table 11 as the mean of four replications.

[10] = tested on: non-transgenic control soybeans; test: as above; conditions: 8960 g/ha
Procedure: as §3, §4, §5

[11] = tested on: Fairview (Tulbagh) ryegrass resistant to glyphosate, paraquat, and ACCase-inhibitors; test: Control of resistant ryegrass by glyphosate and representative SU's (Table 26); assay type: in vivo; conditions: Trial 2: glyphosate (SCAT) 6 L/ha; sprayed with 1% ADD-UP
Excerpt: In this example, four different SU's were applied together with glyphosate (SCAT®) on the resistant ryegrass. The results as to the best SU partner for glyphosate were inconclusive, but the average benefit of applying an SU with glyphosate on herbicide resistant ryegrass was 39% (e.g., 34% control with glyphosate (SCAT®) only and 57-83% control with glyphosate (SCAT®) plus metsulfuron-methyl (BRUSH-OFF®), chlorsulfuron (GLEAN®), or triasulfuron (LOGRAN®)).
• Biotype: Fairview (Tulbagh) resistant to glyphosate, paraquat, and ACCase-inhibitors. • Growth Stage: 4 leaf stage • Conditions: Cool and sunny • Volume rate: 200 L ha^−1 • All treatments sprayed with 1% ADD-UP

[12] = tested on: non-glyphosate resistant ryegrass (70-04); test: Control of ryegrass by glyphosate, metsulfuron-methyl and two additives (Table 23); assay type: in vivo; conditions: Trial 1: glyphosate (SCAT) 0.5 L/ha
Procedure: The example was conducted on non-glyphosate resistant ryegrass. As provided in Table 23, all treatments that included glyphosate [180 g a.i. L ha^−1 (0.5 L glyphosate (SCAT®))] plus metsulfuron-methyl (BRUSH-OFF®) (5 and 10 g ha^−1) gave 100% control of the ryegrass.
• Biotype: non-glyphosate resistant ryegrass (70-04) • Population profile: Rup 0.25 control (%) 6.25 • Rup 0.5 control (%) 81.25 • Rup 1.0 control (%) 93.75 • Growth Stage: 5-6 leaf stage • Conditions: hot and sunny • Volume rate: 200 L ha^−1

[13] = 2 weeks after treatment, 0% no injury, 100% plant death

SMILES: O=C(O)CNCP(=O)(O)O [glyphosate (ROUNDUP ®)]
- Control (%) [1]: 50%
- Control (%) ([2]; Trial 1: glyphosate (ROUNDUP) 0.5 L/ha): 12%

SMILES: O=C(O)CNCP(=O)(O)O [Glyphosate, N-phosphonomethylglycine]
- % Visual Injury Parent elite stiff stalk inbred [3, 13]: 100%
- Fresh Weight (g) Parent elite stiff stalk inbred ([3]; applied two weeks after planting, fresh shoots 2 weeks after treatment, untreated 76.4 g): 1.0 g
- GAT-HRA transgenic plants with no deleterious symptoms [4]: approximately 50%
- effect on untransformed Coker 312 control plants [5]: dead
- callus growth ([6]; media with 1.0 and 2.0 mM glyphosate): very little callus growth
- embryos showing callus initiation ([6]; medium with 0.5 mM glyphosate): about half of the embryos
- % Visual Injury Heterozygous GAT-HRA [7, 13]: 10%
- Fresh Weight (g) Heterozygous GAT-HRA ([7]; applied two weeks after planting, fresh shoots 2 weeks after treatment, untreated 98.8 g): 97.4 g
- plants killed ([2]; glyphosate on its own, 10-15 leaf stage, 200 L ha^-1): 1 out of 16 plants
- resistant callus initiation of infected embryos [8]: some embryos initiated resistant callus
- % Visual Injury ([9]; Event # 59, Line # 21): 40%
- % Visual Injury ([9]; Event # 59, Line # 28): 37%
- % Visual Injury ([9]; Event # 59, mean): 38%
- % Visual Injury ([9]; Event # 60, Line # 07): 19%
- % Visual Injury ([9]; Event # 60, Line # 11): 11%
- % Visual Injury ([9]; Event # 60, Line # 22): 11%
- % Visual Injury ([9]; Event # 60, Line # 35): 9%
- % Visual Injury ([9]; Event # 60, Line # 41): 13%
- % Visual Injury ([9]; Event # 60, Line # 46): 20%
- % Visual Injury ([9]; Event # 60, Line # 70): 9%
- % Visual Injury ([9]; Event # 60, Line # 75): 14%
- % Visual Injury ([9]; Event # 60, Line # 77): 19%
- % Visual Injury ([9]; Event # 60, Line # 79): 18%
- % Visual Injury ([9]; Event # 60, Line # 82): 20%
- % Visual Injury ([9]; Event # 60, Line # 84): 22%
- % Visual Injury ([9]; Event # 60, mean): 15%
- % Visual Injury ([9]; Event # 61, Line # 02): 10%
- % Visual Injury ([9]; Event # 61, Line # 02B): 10%
- % Visual Injury ([9]; Event # 61, Line # 05): 11%
- % Visual Injury ([9]; Event # 61, Line # 14): 10%
- % Visual Injury ([9]; Event # 61, Line # 18): 10%
- % Visual Injury ([9]; Event # 61, Line # 24): 60%
- % Visual Injury ([9]; Event # 61, Line # 33): 84%
- % Visual Injury ([9]; Event # 61, Line # 34): 23%
- % Visual Injury ([9]; Event # 61, Line # 47): 15%
- % Visual Injury ([9]; Event # 61, Line # 49): 9%
- % Visual Injury ([9]; Event # 61, Line # 51): 10%
- % Visual Injury ([9]; Event # 61, Line # 60): 16%
- % Visual Injury ([9]; Event # 61, Line # 62): 6%
- % Visual Injury ([9]; Event # 61, Line # 99): 10%
- % Visual Injury ([9]; Event # 61, mean): 20%
- % Visual Injury ([9]; Event # 64, Line # 41): 20%
- % Visual Injury ([9]; Event # 64, Line # 47): 10%
- % Visual Injury ([9]; Event # 64, mean): 14%
- % Visual Injury ([10]; STS ®, Line # 25): 100%
- % Visual Injury ([10]; STS ®, Line # 46): 100%
- % Visual Injury ([10]; STS ®, mean): 100%
- % Visual Injury ([10]; Wild Type, Line # 82): 100%
- % Visual Injury ([10]; Wild Type, Line Jack): 100%
- % Visual Injury ([10]; Wild Type, mean): 100%

SMILES: O=C(O)CNCP(=O)(O)O [glyphosate (SCAT ®)]
- Control (%) [11]: 34%
- Control (%) [12]: 94%
